The target in experiment [1] is Marinobacter sp. msLacBP6 variant Y187C, C-terminal βZif fusion, SEQ ID NO: 61, Acrylodan and βZif 5IAF (Fluorescein) conjugate. Put plainly: Fluorescence titration of doubly labeled conjugate (ngmFRET). It is filed as binding. From the text: (§1) We tested whether non-geometrically modulated fluorescence energy transfer (ngmFRET) effects in doubly labeled proteins could improve ratiometric signaling. To this end, we fused a small, disulfide-containing domain, βZif (Smith et al., 2005, Protein Sci, 14, 64-73) to the C-terminus of msLacBP6 187C (Table 5). This arrangement enables independent, site-specific labeling with two different, thiol-reactive fluorophores by first reacting at the unprotected thiol in the msLacBP6, followed by a reduction of the […] disulfide to deprotect and label this second site with a second fluorophore. […] Indirectly responsive partners are selected according to their excitation and emission characteristics such that energy transfer is established between the two fluorophores. […] Mechanisms for non-geometrically modulated FRET (ngmFRET) effects are detailed in Materials and Methods and PCT International Patent Application No. PCT/US 16/62958, filed Nov. 19, 2016, the entire content of which is incorporated herein by reference.
(§2) In the Badan conjugates, the ngmFRET coupling was so strong that all the donor excited state energy was transferred to the acceptor, and the signal was converted from a dichromatic to a monochromatic response. In the Acrylodan conjugates, an improvement in the dichromatic signal was observed (FIG. 7).
(§3) Temperatures were advanced in 1K steps. […] Under these experimental photobleaching was not observed.

Experiment [2] addresses Marinobacter sp. msLacBP6 variant Y187C, C-terminal βZif fusion, SEQ ID NO: 61, Acrylodan and βZif Alexa532 conjugate. The experiment is described as above. It is filed as binding.
Description: as §1, §2, §3

The values that follow come from patent US11099176B2 (priority 2015, dated 2021).

SMILES strings stand for the structures. Where two headings read alike, the source gives them in different places.

`C[C@H](O)C(=O)O` [lactate]: the Kd in experiment [1] (read-out: appKd (lactate), λ1 452, λ2 520 nm) is 300 µM; in experiment [1] (read-out: trueKd (lactate), λ1 452, λ2 520 nm), 300 µM; in experiment [2] (read-out: appKd (lactate), λ1 452, λ2 550 nm), 400 µM; in experiment [2] (read-out: trueKd (lactate), λ1 452, λ2 550 nm), 300 µM.
